Entries after “also recorded” stand apart in the source; their conditions may differ.
Assays:
undifferentiated hESCs = assay: AP-ELA binding to undifferentiated hESCs after shRNA-mediated depletion of APLNR; conditions: Day 0 undifferentiated hESCs
Method: (§2) HES3 human embryonic stem cells were transduced with 2TU of lentiviruses and selected with 2 ug/ml puromycin for 2 weeks on feeder free culture system.

hESCs [1] = assay: hESC growth assays (cell counts, colony size, xCELLigence real time cell index); type: cell-based, human; conditions: for growth of knockdown hESCs (real-time cell index, xCELLigence): knockdown hESCs versus control hESCs
Method: Feeder-free hESCs were cultured in clumps in mTSER1 (Stem Cell Technologies) on Matrigel (BD 354277).
hESCs were dissociated into single cells using Accutase (Stem Cell Technologies) and plated in the presence of 10 μM Y-27632 (ROCK inhibitor) for 12 hours (Watanabe et al., 2007).
For xCELLigence real time growth assays, 4000 cells were plated per well of an E-plate (ACEA Biosciences) with media changes every 48 hours.
(§1) Recombinant ELA was added at 2.5 uM (or 10 μg/ml). Cell cycle studies were performed with Click-iT EDU staining kit (Invitrogen) and by performing a double thymidine block (2.5 mM thymidine; 16 hour block, 8 hour release, 16 hour block) followed by DAPI staining for DNA content at the indicated times following release.

APLNR = APLNR knockdown (qPCR, flow cytometry); conditions: FACs
Method: as §2
To obtain hESC-derived cells that express APLNR, we adopted a protocol for cardiac differentiation, which was stopped at Day 3 when APLNR expression peaks (Lian et al., 2013). We refer to this intermediary cell type as Day 3-differentiated mesoendoderm. Briefly, Shef4 and HES3 hESCs were dissociated with Accutase, and 0.14 million cells were plated into each well of a Matrigel-coated 24 well plate in the presence of 5 μM Y-27632 in mTSER1. The media was changed daily for 4 days with mTSER1 until the cells became 90% confluent. On Day 0, mTSER1 was then replaced with differentiation media [RPMI 1640, B-27 supplement with no insulin (Invitrogen)] with 9 μM of GSK3β inhibitor CHIR99201 (BioVision) for 24 hours. The cells were further grown for 2 days in RPMI+B27 without insulin until Day 3, when they were used for qPCR, flow cytometry and AP-binding assays.
Cells were resuspended to 2.5 million/ml and stained with 5 μg/ml of a APLNR (mAB856, R&D Systems) in PBS/5% FBS/1 mM EDTA for 30 minutes on ice, followed by wash in buffer, and stain with a mouse-IgG-Alexa Fluo488 (Molecular Probes) for 30 minutes on ice. Flow cytometry was carried out on LSRII (Becton Dickinson) and data analysis was performed with FlowJo (Treestar Inc.).

[2] = test system: hESC-derived mesendoderm cells; assay: AP-ELA binding to Day 3 mesoendoderm cells after shRNA-mediated depletion of APLNR
Method: as §2
Briefly, Shef4 and HES3 hESCs were dissociated with Accutase, and 0.14 million cells were plated into each well of a Matrigel-coated 24 well plate in the presence of 5 μM Y-27632 in mTSER1. The media was changed daily for 4 days with mTSER1 until the cells became 90% confluent. On Day 0, mTSER1 was then replaced with differentiation media [RPMI 1640, B-27 supplement with no insulin (Invitrogen)] with 9 μM of GSK3β inhibitor CHIR99201 (BioVision) for 24 hours. The cells were further grown for 2 days in RPMI+B27 without insulin until Day 3, when they were used for qPCR, flow cytometry and AP-binding assays.

hESCs [3] = assay: Apoptosis assay (Annexin V, activated Caspase 3); type: cell-based, human
Method: Apoptosis assays were performed by plating control and Doxycycline-treated cells without Y-27632 onto matrigel for 6 hours, followed by harvesting and staining for Annexin V and activated Caspase 3.

hESCs [4] = assay: Directed endoderm differentiation of hESCs (SOX17+ cell count); type: cell-based, human; conditions: immunofluorescence
Method: Shef4TetR5-shELA and Shef4TetR5-shβ2M cells were cultured in the presence (shELA and shβ2M respectively) or absence (Control) of 20 ng/ml doxycycline for 1 passage (4 days) and dissociated with Accutase. […] 24 hours later, the media was changed to Endo differentiation media 1 [RPMI 1640 (Gibco), 1X B-27 supplement (Invitrogen), 50 ng/ml of Activin A (R&D Systems), 25 ng/ml BMP4 (R&D Systems) and 50 ng/ml bFGF (Invitrogen)] for 3 days. On day 3, the media was changed to Endo differentiation media 2 (RPMI 1640, B27, 50 ng/ml Activin) for 2 more days of culture. Rescue experiments were performed by adding 2.5 uM of ELA peptide to Shef4TetR5-shELA concurrently with doxycycline up to day 3, when the ELA peptide is no longer necessary as judged by downregulation of endogenous ELA.
On day 5, cells were fixed with 4% paraformaldehyde and stained with α SOX17 (AF1924, R&D Systems) and DAPI. For each well, three different randomly selected fields were imaged and the number of nuclei staining positive of SOX17 and DAPI were counted using a custom macro in ImageJ. A minimum of two wells per condition was used for each experiment, and a minimum of two independent experiments were performed to generate the results.

hESCs [5] = assay: Cell cycle studies (EDU staining, double thymidine block); type: cell-based, human; conditions: release from double thymidine block
Method: as §1

[6] = test system: mesendodermal genes including GATA6, GATA4, FOXA2, EOMES and BRA; assay: qPCR of mesendodermal markers in hESCs; type: cell-based, human
Method: After the indicated time periods, embryoid bodies were harvested and RNA extracted using RNeasy kit […]. qPCR reactions were carried out using either Universal FastStart SYBR Green Mastermix (Roche) or using the Universal Probe Library system (Roche) in tandem with Taqman Fast Mastermix (Invitrogen). Primer sequences can be found in Table E1.

hESCs [7] = assay: Teratoma analysis; type: in vivo; conditions: 10 million cells subcutaneously into SCID mice, day 60
Method: Shef4TetR5-shELA cells were cultured in the presence (shELA) or absence (Control) of 20 ng/ml doxycycline for 3 passages (4 days/passage). Cells were harvested with Accutase (Stemcell Technologies) and resuspended in 1 part Matrigel to 2 parts mTSER1. 10 million cells in 200 μl were injected subcutaneously into the right hind paunches of SCID mice. shELA-injected mice were fed doxycycline (20 μg/ml) for 3 weeks following injection. Mice were sacrificed 60 days post-injection for tumor analysis.

[8] = test system: pluripotency markers POU5F1, NANOG, SSEA3 and TRA-1-60; assay: Pluripotency markers in ELA-depleted hESCs (immunofluorescence, qPCR); type: cell-based, human; conditions: prolonged ELA depletion in hESCs
Method: […]. Neomycin-resistant cells were clonally expanded and assayed for doxycycline (20 ng/ml)-inducible knockdown. Data from one representative clone (Shef4TetR5 shELA) are shown in this paper. Shef4TetR5 shβ2M were derived as previously described (Zafarana et al., 2009). Unless otherwise stated, ELA knockdown was induced on Day −4 with 20 ng/ml doxycycline to generate shELA cells.
Polyclonal antibodies were raised against a human N-terminal epitope (nh2-[…]) (SEQ ID NO: 53), C-terminal epitope ([…]-cooh) (SEQ ID NO: 52) or whole mature ELABELA peptide with an intramolecular cysteine bond (nh2-[…]-cooh) (SEQ ID NO: 2) and peptide-affinity purified from rabbit and goat sera. […] For western blotting and immunofluoresence assays, ELA antibodies were used at 1 μg/mL. All other antibodies are commercially available: TGN-46 (Serotec # AHP500GT); SSEA-3 (Stem Cell Tech #60061AD); TRA-1-60 (BD #560173); SOX17 (R&D # AF1924); POU5F1 (SCBT #sc-5279).

Substance	levels of AP-ELA bound after APLNR depletion (undifferentiated hESCs)	growth of knockdown hESCs (real-time cell index, xCELLigence) (hESCs [1])	cell surface APLNR levels (APLNR; Day 0 undifferentiated hESCs)	cell surface APLNR levels (APLNR; Day 3 mesoendoderm cells)	levels of AP-ELA bound after APLNR depletion [2]	apoptosis (hESCs [3]; FACs, ANNEXIN V and activated CASPASE 3, single cells)	increase in the number of ANNEXIN V and activated CASPASE 3-positive cells (hESCs [3]; compared to control hESCs)	directed endoderm differentiation (SOX17 expression) (hESCs [4])	cell cycle progression (hESCs [5])	growth of hESCs by cell numbers (hESCs [1]; FIG. 3C, relative to untreated hESCs)	growth of hESCs relative to untreated cells (hESCs [1]; hESCs pulsed with peptide, documented by cell counts, colony size and real-time cell indices)	colony size (hESCs [1]; knockdown hESC colonies versus control)	expression of mesendodermal markers [6]	teratoma / tumor formation (hESCs [7])	pluripotency markers and colony morphology [8]
shAPLNR: lentiviral shRNA hairpins against APLNR (constructs shAPLNR-1 and shAPLNR-2) (guide 1 ACACGTACCGGGACTATGA; guide 2 CCATCATGCTGACCTGTTA)	could not reduce binding of AP-ELA; also recorded: does not affect	not compromised; also recorded: do not show impaired growth	No changes	significantly reduced cell surface APLNR levels	sufficient to significantly diminish the levels of AP-ELA; also recorded: significantly reduced AP-ELA binding	–	–	–	–	–	–	–	–	–	–
shELA: doxycycline-inducible shRNA, sequence GTGATTCTCGTGCCTCAAC targeting the 3′UTR of ELA, in Shef4TetR5 hESCs	–	markedly reduced growth rates; also recorded: significant growth impairment	–	–	–	significantly higher rate; also recorded: rapid apoptosis	approximately 40%	impaired endoderm differentiation; also recorded: markedly impaired	not due to the activation of G1/S checkpoint or lengthened G0 residence; also recorded: do not display overt changes in cell cycle progression	reduced growth	reduced growth	less than half the size; also recorded: twice as small	reduced levels; also recorded: conversely downregulated	did not form teratomas	downregulation of pluripotency markers; also recorded: lose expression of pluripotency markers; also recorded: gradually differentiate and lose pluripotency markers

Source: patent publication US9309314B2, “Polypeptides, nucleic acids and uses thereof” (AGENCY FOR SCIENCE, TECHNOLOGY AND RESEARCH (A*STAR), priority 2013, dated 2016)
